Drawing on patent US20120270237A9, “METHODS FOR THE IDENTIFICATION OF KINASE INTERACTING MOLECULES AND FOR THE PURIFICATION OF KINASE PROTEINS” (Cellzone AG, priority 2009, published 2012), this text covers inhibition and Competition % for 1 molecule.

The structures appear in SMILES notation.

Assay in all cases: Kinobeads competition binding, HeLa Placenta lysate mix
Common to all, as to design: endogenous in cells
Holding throughout (settings): 10 μM free compound

One assay addresses CK2a1 (Homo sapiens, UniProt P68400). The method, boiled down: (§1)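 Two lysate aliquots, one given 10 μM compound and one DMSO, are each captured on compound-derivatized beads. Eluates are gel-separated, trypsinized, iTRAQ-labeled and combined for tandem MS quantification.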
The target of a further assay is GSK3B (Homo sapiens, UniProt P49841). The method, boiled down: as §1
GSK3B, sequence (P49841 whole entry): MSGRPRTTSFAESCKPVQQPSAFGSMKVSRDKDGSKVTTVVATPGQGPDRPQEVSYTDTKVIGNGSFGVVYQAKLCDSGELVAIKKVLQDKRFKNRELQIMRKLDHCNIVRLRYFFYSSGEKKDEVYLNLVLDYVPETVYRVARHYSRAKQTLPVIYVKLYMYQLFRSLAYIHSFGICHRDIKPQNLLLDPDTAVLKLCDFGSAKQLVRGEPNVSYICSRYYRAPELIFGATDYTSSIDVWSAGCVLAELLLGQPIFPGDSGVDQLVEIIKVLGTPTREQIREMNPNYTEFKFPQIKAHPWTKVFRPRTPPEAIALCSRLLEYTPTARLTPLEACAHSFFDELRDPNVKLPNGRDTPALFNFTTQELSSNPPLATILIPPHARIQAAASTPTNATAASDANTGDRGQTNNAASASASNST
The target of a further assay is JNK2 (Homo sapiens, UniProt P45984). The method in brief:
as §1

Another assay deals with T1, MAP3K5 (Homo sapiens, UniProt Q99683).
T1 sequence (Q99683 1-1374): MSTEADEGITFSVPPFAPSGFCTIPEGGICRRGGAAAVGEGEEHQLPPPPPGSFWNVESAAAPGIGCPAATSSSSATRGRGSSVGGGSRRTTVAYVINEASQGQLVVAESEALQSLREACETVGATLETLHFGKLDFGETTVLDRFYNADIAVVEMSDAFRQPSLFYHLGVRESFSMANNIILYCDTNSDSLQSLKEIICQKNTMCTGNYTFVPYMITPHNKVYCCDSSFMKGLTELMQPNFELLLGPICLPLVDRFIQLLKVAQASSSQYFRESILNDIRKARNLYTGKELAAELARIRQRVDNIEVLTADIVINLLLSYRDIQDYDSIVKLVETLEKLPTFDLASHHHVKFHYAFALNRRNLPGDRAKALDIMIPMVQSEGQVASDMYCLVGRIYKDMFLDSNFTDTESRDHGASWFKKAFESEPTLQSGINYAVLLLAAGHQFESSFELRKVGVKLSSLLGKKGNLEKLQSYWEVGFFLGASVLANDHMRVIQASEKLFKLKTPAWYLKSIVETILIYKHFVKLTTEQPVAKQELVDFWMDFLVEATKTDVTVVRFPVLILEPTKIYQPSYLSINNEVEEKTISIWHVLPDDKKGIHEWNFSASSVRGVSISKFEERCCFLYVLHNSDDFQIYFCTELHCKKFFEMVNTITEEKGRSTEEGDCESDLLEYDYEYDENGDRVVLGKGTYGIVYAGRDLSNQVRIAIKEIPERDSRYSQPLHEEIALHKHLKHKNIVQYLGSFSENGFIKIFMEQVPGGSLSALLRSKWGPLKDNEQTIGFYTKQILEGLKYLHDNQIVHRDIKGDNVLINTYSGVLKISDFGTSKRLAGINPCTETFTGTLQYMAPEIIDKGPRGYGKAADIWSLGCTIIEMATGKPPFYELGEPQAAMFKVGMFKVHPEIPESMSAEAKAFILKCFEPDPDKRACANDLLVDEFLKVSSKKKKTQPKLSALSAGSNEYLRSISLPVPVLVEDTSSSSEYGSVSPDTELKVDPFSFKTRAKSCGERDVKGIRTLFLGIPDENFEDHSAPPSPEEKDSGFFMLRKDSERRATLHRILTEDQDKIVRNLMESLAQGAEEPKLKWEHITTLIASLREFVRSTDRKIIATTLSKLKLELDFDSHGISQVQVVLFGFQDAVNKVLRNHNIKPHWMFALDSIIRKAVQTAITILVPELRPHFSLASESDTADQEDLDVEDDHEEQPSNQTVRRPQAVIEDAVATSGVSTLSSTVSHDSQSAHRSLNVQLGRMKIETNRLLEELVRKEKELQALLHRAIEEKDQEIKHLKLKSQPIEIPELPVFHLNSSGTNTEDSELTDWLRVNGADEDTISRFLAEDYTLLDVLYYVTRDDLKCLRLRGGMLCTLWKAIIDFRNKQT
The method in brief:
as §1

In a further assay the target is T2, PKD2 (Homo sapiens, UniProt Q9BZL6).
T2 sequence (Q9BZL6 1-878): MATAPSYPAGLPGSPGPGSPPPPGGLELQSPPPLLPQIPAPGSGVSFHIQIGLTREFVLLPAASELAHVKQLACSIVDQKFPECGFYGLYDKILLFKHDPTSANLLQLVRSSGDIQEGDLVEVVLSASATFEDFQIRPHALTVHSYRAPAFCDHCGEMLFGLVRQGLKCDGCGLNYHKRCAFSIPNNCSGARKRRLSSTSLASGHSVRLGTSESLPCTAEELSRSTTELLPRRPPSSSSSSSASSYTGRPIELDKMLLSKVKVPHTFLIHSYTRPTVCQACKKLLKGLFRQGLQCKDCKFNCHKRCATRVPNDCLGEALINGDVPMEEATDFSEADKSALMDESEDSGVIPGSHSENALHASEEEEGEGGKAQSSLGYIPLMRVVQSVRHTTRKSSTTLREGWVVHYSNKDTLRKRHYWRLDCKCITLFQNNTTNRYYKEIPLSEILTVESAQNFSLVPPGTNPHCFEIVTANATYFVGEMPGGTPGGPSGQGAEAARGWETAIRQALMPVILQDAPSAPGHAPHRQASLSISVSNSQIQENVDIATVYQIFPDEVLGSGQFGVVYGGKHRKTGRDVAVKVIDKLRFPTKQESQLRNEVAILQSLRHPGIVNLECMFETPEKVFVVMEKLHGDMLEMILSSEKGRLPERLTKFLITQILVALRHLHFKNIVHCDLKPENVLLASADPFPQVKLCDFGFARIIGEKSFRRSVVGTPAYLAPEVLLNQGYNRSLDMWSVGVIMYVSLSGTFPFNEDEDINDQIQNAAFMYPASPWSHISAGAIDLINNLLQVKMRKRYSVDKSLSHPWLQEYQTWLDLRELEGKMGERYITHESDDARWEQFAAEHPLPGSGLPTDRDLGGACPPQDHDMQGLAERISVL
The method in brief:
as §1

The target in the next assay is TYK2 (Homo sapiens, UniProt P29597). The method in brief:
as §1

JNK2, sequence (P45984 whole entry): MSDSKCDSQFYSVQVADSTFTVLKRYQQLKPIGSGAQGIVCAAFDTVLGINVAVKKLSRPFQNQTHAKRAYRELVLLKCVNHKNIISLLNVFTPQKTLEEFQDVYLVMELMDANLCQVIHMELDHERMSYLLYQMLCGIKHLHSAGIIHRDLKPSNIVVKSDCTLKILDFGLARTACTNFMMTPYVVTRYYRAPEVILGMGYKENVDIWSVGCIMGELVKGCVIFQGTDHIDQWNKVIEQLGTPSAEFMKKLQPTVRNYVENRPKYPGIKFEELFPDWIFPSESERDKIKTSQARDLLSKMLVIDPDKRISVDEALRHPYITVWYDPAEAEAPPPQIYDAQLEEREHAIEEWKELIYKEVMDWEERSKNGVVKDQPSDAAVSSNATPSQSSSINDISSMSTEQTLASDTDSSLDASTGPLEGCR
TYK2, sequence (P29597 whole entry): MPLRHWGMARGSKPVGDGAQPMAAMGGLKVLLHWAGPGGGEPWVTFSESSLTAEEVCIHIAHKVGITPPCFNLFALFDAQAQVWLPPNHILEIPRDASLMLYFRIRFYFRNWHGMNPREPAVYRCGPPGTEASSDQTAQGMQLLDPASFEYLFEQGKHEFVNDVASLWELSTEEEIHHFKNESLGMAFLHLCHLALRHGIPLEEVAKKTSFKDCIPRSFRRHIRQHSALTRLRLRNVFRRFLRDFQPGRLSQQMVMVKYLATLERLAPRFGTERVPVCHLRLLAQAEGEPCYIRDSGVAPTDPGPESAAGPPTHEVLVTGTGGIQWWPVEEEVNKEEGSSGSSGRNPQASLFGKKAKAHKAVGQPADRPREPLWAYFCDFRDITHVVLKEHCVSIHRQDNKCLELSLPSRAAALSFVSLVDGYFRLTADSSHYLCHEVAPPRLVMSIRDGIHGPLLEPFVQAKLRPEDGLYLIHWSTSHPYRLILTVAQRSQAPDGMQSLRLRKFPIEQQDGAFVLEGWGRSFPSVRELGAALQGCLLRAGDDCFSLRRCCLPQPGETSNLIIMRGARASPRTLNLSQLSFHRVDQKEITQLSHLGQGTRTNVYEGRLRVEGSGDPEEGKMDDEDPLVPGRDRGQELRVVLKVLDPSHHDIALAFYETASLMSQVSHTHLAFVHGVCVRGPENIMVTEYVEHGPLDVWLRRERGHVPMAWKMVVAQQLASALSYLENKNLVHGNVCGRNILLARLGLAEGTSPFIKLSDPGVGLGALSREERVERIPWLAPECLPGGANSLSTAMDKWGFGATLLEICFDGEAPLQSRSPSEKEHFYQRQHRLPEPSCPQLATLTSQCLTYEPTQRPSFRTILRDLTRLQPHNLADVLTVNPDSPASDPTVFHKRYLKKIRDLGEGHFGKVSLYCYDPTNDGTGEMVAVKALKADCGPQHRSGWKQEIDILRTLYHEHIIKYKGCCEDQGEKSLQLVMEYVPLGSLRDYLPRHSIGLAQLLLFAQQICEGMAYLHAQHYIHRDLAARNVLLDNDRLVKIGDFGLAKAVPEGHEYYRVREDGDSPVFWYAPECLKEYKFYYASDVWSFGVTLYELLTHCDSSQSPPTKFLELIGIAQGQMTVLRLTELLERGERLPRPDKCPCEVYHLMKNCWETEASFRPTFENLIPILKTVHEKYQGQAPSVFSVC
CK2a1, sequence (P68400 whole entry): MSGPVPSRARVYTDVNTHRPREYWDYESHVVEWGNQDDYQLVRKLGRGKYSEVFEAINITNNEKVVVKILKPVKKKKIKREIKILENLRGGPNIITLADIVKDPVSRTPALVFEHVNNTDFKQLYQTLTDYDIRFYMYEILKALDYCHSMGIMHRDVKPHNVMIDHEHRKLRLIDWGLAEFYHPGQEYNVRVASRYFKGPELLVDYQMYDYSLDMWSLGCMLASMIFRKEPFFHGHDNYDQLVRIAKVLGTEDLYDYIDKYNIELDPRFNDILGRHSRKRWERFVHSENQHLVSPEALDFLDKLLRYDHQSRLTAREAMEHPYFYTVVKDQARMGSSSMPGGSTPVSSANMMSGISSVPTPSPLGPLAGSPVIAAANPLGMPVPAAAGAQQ

As for `CS(=O)(=O)Nc1ccccc1Nc1nc(Nc2cccc(OCCN)c2)ncc1Cl` [CZC31326, N-(2-(2-(3-(2-aminoethoxy)phenylamino)-5-chloropyrimidin-4-ylamino)phenyl)methanesulfonamide], the inhibition (as a rule, the relative decrease from the control value, in per cent) at 10 µM was determined as 94.6% at CK2a1, 93.3% on GSK3B, 86% at MAP3K5 and 95.4% on PKD2. For the same molecule, the Competition % was determined as 83.1% on JNK2 and 93.8% at TYK2.
